Results on one molecule are retold here after patent publication US20030199424A1, “Method of treatment and/or prophylaxis” (priority 2002, published 2003).

Read-outs that look alike come from different tables or passages of the source.

Assay [1] concerns non-diabetic rats. As to conditions: control non-diabetic rats; previously determined by Saini (2000); cited from earlier work.
Assay [2] deals with STZ-diabetic rats. The note with it: cited from earlier work.
For assay [3], the system named is STZ-diabetic rats. Nature of the assay: Opioid-mediated antinociception (Von Frey, % MPE) in STZ-diabetic rats. The note with it: for ED50: Rattus norvegicus, read-out: mean (±SEM) ED50 of s.c. morphine; for timing of the peak antinociceptive effect: morphine 6.1 mg/kg s.c., control STZ-diabetic rats; for time to reach peak levels of antinociception: s.c. morphine, high-dose oral candesartan-treated STZ-diabetic rats.
Experimental: In all cases, opioids were administered by a single s.c. injection (100 μL) into the dorsal region at the base of the neck whilst under light CO2/O2 (50:50%) anaesthesia using a 250 μL Hamilton syringe. […] By contrast, the opioid-naïve, weight-matched, non-diabetic candesartan control rats were given high-dose oral candesartan (2 mg/kg/day) for 7 days before opioid testing was initiated.
Immediately prior to administration of s.c. bolus doses of either opioid, baseline paw withdrawal thresholds were quantified using VFFs in an identical manner to the weekly baseline Von Frey monitoring described above. Following s.c. opioid administration, VFF assessments were performed at the following post-dosing times: 15, 30, 45, 60, 90, 120 and 180 min.
The VFF scores for individual rats were converted to the Percentage of the Maximum Possible Antinociceptive Effect (% MPE), according the following formula (Brady & Holtzmann, 1982): [formula]
The mean (±SEM) percentage maximum AUC (% Max AUC) was calculated according to the following formula: [formula]
ED50 estimation was facilitated by inclusion of the theoretical maximum and minimum % Max AUC values. The Mann-Whitney test was used to compare %MPE AUC ED50 values between treatment groups. The statistical significance criterion was p<0.05.

For assay [4], the system named is non-diabetic rats. Briefly: Opioid-mediated antinociception (Von Frey, % MPE) in non-diabetic control rats. The assay is classed as in vivo, rat. The note with it: for ED50: Rattus norvegicus. On the procedure: A second group of STZ-diabetic rats received vehicle (DMSO:water 10:90) by oral gavage (protocol-control rats). In the third group, weight-matched, naive, non-diabetic control rats (non-diabetic candesartan control rats) were also treated with candesartan for one wk prior to opioid antinociceptive testing to determine any intrinsic effects of candesartan on baseline pain scores and on opioid-mediated antinociception.
The statistical significance criterion was p<0.05.

The term ED50 denotes the dose at which the effect has come halfway, by size or by number of responders. `CN1CC[C@]23c4c5ccc(O)c4O[C@H]2[C@@H](O)C=C[C@H]3[C@H]1C5` [morphine]: the “ED50 of s.c. morphine (single bolus dose)” value in the assay on non-diabetic rats [1] is recorded as around 2.4 mg/kg. In the assay with STZ-diabetic rats [2] (s.c. morphine, control STZ-diabetic rats by 12 wks post-STZ (Smith et al., 2001)), the antinociceptive efficacy entry was “completely abolished”. For the same molecule, the ED50 morphine dose with STZ-diabetic rats [2] (s.c., STZ-diabetic rats at 3 and 9 wks post-STZ, previously determined by Smith et al. (2001)) is reported as 6.1 mg/kg. Further, the ED50 with STZ-diabetic rats [3] (504 h) was 2.5 mg/kg; in the assay on STZ-diabetic rats [3] (1512 h), 2.3 mg/kg; with STZ-diabetic rats [3] (2016 h), 2.1 mg/kg; with STZ-diabetic rats [3] (4032 h) it was 2.4 mg/kg; in the assay with non-diabetic rats [4] (read-out: ED50 of s.c. morphine, non-diabetic rats on high-dose oral candesartan 2.0 mg/kg/day), 2.3 ± 0.3 mg/kg; in the assay on non-diabetic rats [4] (sc, read-out: mean (±SEM) ED50 of s.c. morphine, control untreated non-diabetic rats), 2.9 mg/kg. Further, in the assay with STZ-diabetic rats [3] (control STZ-diabetic rats of the present studies, 12 wks post-STZ and beyond), the “antinociceptive response evoked by morphine” value is “marked decrease”. The “time to achieve the peak antinociceptive effect” value in the assay on STZ-diabetic rats [3] (morphine 2.4 mg/kg s.c., STZ-diabetic rats 24 wks post-STZ, oral candesartan 2.0 mg/kg/day) is 60 min; in the assay on non-diabetic rats [4] (morphine 2.4 mg/kg s.c., control non-diabetic rats), 45 min. Further, the results for the “timing of the peak antinociceptive effect” value with STZ-diabetic rats [3] (3 wks post-STZ) and with STZ-diabetic rats [3] (9 wks post-STZ) were “approximately 45 min” and 60 min, respectively. In addition, the “time to reach peak levels of antinociception” value in the assay with STZ-diabetic rats [3] (3 wks post-STZ) is reported as 45 min; in the assay on STZ-diabetic rats [3] (beyond 12 wks post-STZ), 60 min.
